The subject of this test is MV-4-11 cells. Briefly: Gene expression microarray analysis (Affymetrix PrimeView) and GSEA. Type of test: cell-based, human. Particulars: MV-4-11, 48 hours, 1 μM each.

The structures appear in SMILES notation.

Take `Nc1ccc(-c2cccs2)cc1NC(=O)c1ccc2c(c1)cc(C1CC1)n2CCN1CCOCC1` [ACY-1035]: the “genes up-regulated greater than 2-fold relative to vehicle control” value is 386 genes.
